# Measurements as given in patent publication US6348201B2, “External composition for skin comprising sphingoglycolipid” (Kibun Food Chemifa Co., Ltd., priority 1997, dated 2002).
# Test system: hairless mice (Skh:hr-1)
# Assay: Test for evaluating moisturizing and skin roughness prevention effects: transcutaneous transpiration measured with a hydrograph
# Format: in vivo
# Conditions: 10th day, average of five mice, relative to control (0.5% Triton X-150, 9 g/m^2/h) as 100; Triton X-150 pretreated, middle-wavelength UV 0.15 J/cm^2, samples applied once a day on rear back
# Procedure: Twenty male hairless mice of 9-week old (Skh:hr-1, Nihon SLC) were treated with 0.5% Triton X-150 (50 μl) in a circular area of 2.5 cm diameter on their rear backs. The once-a-day application was continued for 5 days. On the 6th day and thereafter, middle-wavelength UV light was irradiated at a dose of 0.15 J/cm^2 using a SE lamp (manufactured by Toshiba Medical Instruments Co., Ltd.), and Samples 1 to 5 (dissolved in 0.5% Triton X-150) listed below and control sample (0.5% Triton X-150) were applied. These procedures were followed once a day and continued up to the 10th day. Five hairless mice were subjected to each test for Samples or the control.
# After the middle-wavelength UV irradiation and the sample application were completed on the 10th day, amount of transcutaneous transpiration was measured using a hydrograph (model AMU-3: manufactured by Fauchon Co., Ltd.) to determine an average value for the five mice. Results were shown in the table below, where the values are expressed in relative values assuming the control (9 g/m^2/h) as 100.
row,Compound,Relative transcutaneous transpiration
1,"CCCCCCCCCCCCC/C=C\C(O)C(CO)NC(=O)O[C@@H]1O[C@H](CO)[C@H](O)[C@H](O)[C@H]1O (stereo partly drawn) [Sample 5 (comparison), Galactocerebroside]",91
2,Ganglioside [Sample 4 (comparison)],89
3,Glyceroglycolipid [Sample 3 (comparison)],123
